Measurements from patent US5280111A, “Sulfated tocopheryl oligosaccharides and antiviral agents including the same as active ingredients” (Dainippon Ink and Chemicals, Inc., priority 1991, dated 1994).
Values after ≈ are worked out from the molar mass of the structure shown. Where two headings read alike, the source gives them in different places.

Assays:
Format in all cases: cell-based
[1] = tested on: MT-4 cells; assay: Cytotoxicity: inhibitory effect on host cell viability, mock-infected MT-4 cells (MTT method); details: human, mt-4 cells, 120 h
Description: (§1) Activity of the compound against HIV-1 replication was based on the inhibition of virus induced cytopathogenicity in MT-4 cells. MT-4 cells were suspended in culture medium at 2.5×10^4 cells/ml and infected with HIV-1 at a multiplicity of infection (MOI) of 0.01. 100 μl of cell suspension was brought into microtiter tray wells containing various concentrations of the test compounds.
(§2) After 5 days of incubation at 37° C. using a CO2 incubator, the number of viable cells was determined by the MTT method.
(§3) The inhibitory effect on host cell viability (cytotoxicity) was also determined by the MTT method. All activities of the compounds are expressed as 50% inhibitory concentration, i.e., the concentration required to reduce the number of HIV-1-infected MT-4 cells or mock-infected MT-4 cells by 50%. These are expressed using EC50 and CC50. SI is expressed by the ratio of CC50 /EC50. (Reference document: Pauwels, et al., J. Virol Methods, 20 (1988) 309~321).
(§4) According to this method, the anti-HIV assay was carried out using the compounds obtained in Examples 9 to 14. In addition, AZT (3'-azido-3'-deoxythymidine) known as an anti-AIDS agent was employed as a comparative example.

[2] = tested on: HIV-1; assay: Anti-HIV assay: inhibition of virus induced cytopathogenicity in MT-4 cells (MTT method); details: for EC50: HIV-1-infected MT-4 cells, MOI 0.01, 5 days at 37° C., MTT method; for SI: ratio of CC50/EC50, 7200 min
Description: as §1, §2, §3, §4

[3] = Cytotoxicity: inhibitory effect on host cell viability, mock-infected MT-4 cells (MTT method); details: human; mock-infected MT-4 cells; 50% reduction of viable cells; MTT method; 5 days at 37° C.
Description: as §1, §2, §3, §4

Molecule | CC50 [1] [µg/mL] | EC50 ([2]; Human immunodeficiency virus 1, MT4, 120 h, read-out: EC50) [µg/mL] | SI [2] | CC50 at 120 h [3] [µg/mL] | EC50 [2] [µg/mL]
Cc1c(C)c2c(c(C)c1O[C@@H]1O[C@H](COS(=O)(=O)O)[C@@H](O[C@@H]3O[C@H](COS(=O)(=O)O)[C@H](O[C@@H]4O[C@H](COS(=O)(=O)O)[C@H](O[C@@H]5O[C@H](COS(=O)(=O)O)[C@H](OS(=O)(=O)O)[C@H](OS(=O)(=O)O)[C@H]5OS(=O)(=O)O)[C@H](OS(=O)(=O)O)[C@H]4OS(=O)(=O)O)[C@H](OS(=O)(=O)O)[C@H]3OS(=O)(=O)O)[C@H](OS(=O)(=O)O)[C@H]1OS(=O)(=O)O)CCC(C)(CCCC(C)CCCC(C)CCCC(C)C)O2 (mixture of isomers) [Example 13, sulfated dl-α-tocopheryl β-D-galactosyl(1→4)-β-D-galactosyl(1→4)-β-D-lactoside] | 621 | – | – | – | –
Cc1cn([C@H]2C[C@H](N=[N+]=[N-])[C@@H](CO)O2)c(=O)[nH]c1=O [AZT, 3'-azido-3'-deoxythymidine, reference compound] | – | 0.0013 (≈ 0.00486 µM) | 2160 | 2.88 (≈ 10.8 µM) | –
sulfated dl-α-tocopheryl β-D-galactosyl(1→4)-β-D-galactosyl(1→4)-β-D-lactoside [Example 14] | 656 | – | 1151 | – | 0.57
sulfated dl-α-tocopheryl β-D-galactosyl(1→4)-β-D-lactoside [Example 9] | 606 | – | 587 | – | 1.03
sulfated ester sodium salt of dl-α-tocopheryl β-D-glucosyl(1→3)-{β-D-glucosyl(1→3)}3 -β-D-glucoside (1) [Example 10] | > 480 | – | > 920 | – | 0.52
sulfated ester sodium salt of dl-α-tocopheryl β-D-glucosyl(1→3)-{β-D-glucosyl(1→3)}3 -β-D-glucoside (2) [Example 11] | > 480 | – | > 1000 | – | 0.45
sulfated ester sodium salt of dl-α-tocopheryl β-D-glucosyl(1→3)-{β-D-glucosyl(1→3)}7 -β-D-glucoside [Example 12] | > 480 | – | > 1000 | – | 0.44
